# Test results taken from the NIST ThermoML archive (doi:10.1016/j.jct.2007.11.001).
# ± gives the expanded uncertainty stated by the source.
# Experiment: Molar enthalpy of transition or fusion
# Conditions: Crystal 2; Adiabatic calorimetry
compound,measurement,value
O=P([O-])([O-])[O-].[Cs+].[Mg+2] [caesium-magnesium monophosphate],Molar enthalpy of transition or fusion,0.0648 ± 0.00598 kcal/mol
